Where “and” joins values, the source holds several entries; their conditions need not be identical. Equal entries are not always repeated. Toxic doses and inconclusive results are not listed. Rule as the data show it: active = T/C of 150% or more; inactive = T/C below 125%.
Test system: L1210 leukemia ip in BDF1 mice, survival T/C
Experiment: NCI In Vivo Anticancer Drug Screen. Data for tumor model L1210 Leukemia (intraperitoneal) in B6D2F1 (BDF1) mice
Conditions: endpoint: mean survival time, higher = longer survival
Summary of the method: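 Transplantable tumor model; survival measured in treated vs vehicle control mice. Value = treated/control.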

[1] = dose: 100.0 mg/kg/injection, schedule: Q04DX003 (ip), vehicle: saline
[2] = dose: 50.0 mg/kg/injection, schedule: Q01DX009 (ip), vehicle: saline
[3] = dose: 100.0 mg/kg/injection, schedule: Q01DX009 (ip), vehicle: saline
[4] = dose: 200.0 mg/kg/injection, schedule: Q01DX009 (ip), vehicle: saline
[5] = dose: 75.0 mg/kg/injection, schedule: Q01DX001 (ip), vehicle: other
[6] = dose: 150.0 mg/kg/injection, schedule: Q01DX001 (ip), vehicle: other
[7] = dose: 300.0 mg/kg/injection, schedule: Q01DX001 (ip), vehicle: other
[8] = dose: 50.0 mg/kg/injection, schedule: Q01DX009 (ip), vehicle: saline with Tween-80
[9] = dose: 100.0 mg/kg/injection, schedule: Q01DX009 (ip), vehicle: saline with Tween-80
[10] = dose: 100.0 mg/kg/injection, schedule: Q04DX003 (ip), vehicle: saline with Tween-80
[11] = dose: 200.0 mg/kg/injection, schedule: Q01DX009 (ip), vehicle: saline with Tween-80
[12] = dose: 200.0 mg/kg/injection, schedule: Q04DX003 (ip), vehicle: saline with Tween-80
[13] = dose: 50.0 mg/kg/injection, schedule: Q04DX002 (ip), vehicle: saline
[14] = dose: 100.0 mg/kg/injection, schedule: Q04DX002 (ip), vehicle: saline
[15] = dose: 200.0 mg/kg/injection, schedule: Q04DX002 (ip), vehicle: saline
[16] = dose: 25.0 mg/kg/injection, schedule: Q01DX009 (ip), vehicle: saline
[17] = dose: 100.0 mg/kg/injection, schedule: Q04DX003 (ip), vehicle: Klucel (hydroxypropylcellulose) (HPC)
[18] = dose: 200.0 mg/kg/injection, schedule: Q04DX003 (ip), vehicle: Klucel (hydroxypropylcellulose) (HPC)
[19] = dose: 400.0 mg/kg/injection, schedule: Q04DX003 (ip), vehicle: Klucel (hydroxypropylcellulose) (HPC)
[20] = dose: 100.0 mg/kg/injection, schedule: Q01DX001 (ip), vehicle: carboxymethylcellulose (CMC)
[21] = dose: 200.0 mg/kg/injection, schedule: Q01DX001 (ip), vehicle: carboxymethylcellulose (CMC)
[22] = dose: 100.0 mg/kg/injection, schedule: Q01DX009 (ip), vehicle: Klucel (hydroxypropylcellulose) (HPC)
[23] = dose: 200.0 mg/kg/injection, schedule: Q01DX009 (ip), vehicle: Klucel (hydroxypropylcellulose) (HPC)
[24] = dose: 400.0 mg/kg/injection, schedule: Q01DX009 (ip), vehicle: Klucel (hydroxypropylcellulose) (HPC)
[25] = dose: 75.0 mg/kg/injection, schedule: Q01DX001 (ip), vehicle: saline
[26] = dose: 150.0 mg/kg/injection, schedule: Q01DX001 (ip), vehicle: saline

Measured: T/C

Clc1nc(Cl)nc(-c2cccn2-c2ccccc2)n1
inactive: dose: 6.25 mg/kg/injection, schedule: Q01DX009 (ip), vehicle: saline with Tween-80 92 % of control | dose: 100.0 mg/kg/injection, schedule: Q04DX003 (ip), vehicle: acetone 101 % of control | [1] 101 % of control | dose: 200.0 mg/kg/injection, schedule: Q04DX003 (ip), vehicle: acetone 86 % of control | dose: 400.0 mg/kg/injection, schedule: Q04DX003 (ip), vehicle: saline 93 % of control

O=[N+]([O-])c1cc(O)ccc1Cl
inactive: [2] 93 % of control | [3] 102 % of control | dose: 100.0 mg/kg/injection, schedule: Q04DX003 (ip), vehicle: alcohol 104 % of control | [4] 87 % of control

CC(C)([CH2][Sn]([CH2]C(C)(C)c1ccccc1)[CH2]C(C)(C)c1ccccc1)c1ccccc1.CC(C)([CH2][Sn]([CH2]C(C)(C)c1ccccc1)[CH2]C(C)(C)c1ccccc1)c1ccccc1
inactive: [5] 101 % of control | [6] 106 % of control | [7] 94 % of control

CSc1ncc(C#N)c(N)n1
inactive: [8] 98 % of control | [9] 93 % of control | [10] 97 % of control | [11] 104 % of control | [12] 94 % of control

CN1C2CCC1CC(=C(C#N)C(N)=O)C2
inactive: dose: 3.13 mg/kg/injection, schedule: Q01DX009 (ip), vehicle: Klucel (hydroxypropylcellulose) (HPC) 100 % of control | dose: 3.13 mg/kg/injection, schedule: Q04DX003 (ip), vehicle: Klucel (hydroxypropylcellulose) (HPC) 107 % of control | dose: 6.25 mg/kg/injection, schedule: Q01DX009 (ip), vehicle: Klucel (hydroxypropylcellulose) (HPC) 98 % of control | dose: 6.25 mg/kg/injection, schedule: Q04DX003 (ip), vehicle: Klucel (hydroxypropylcellulose) (HPC) 102 % of control | dose: 12.5 mg/kg/injection, schedule: Q04DX003 (ip), vehicle: Klucel (hydroxypropylcellulose) (HPC) 104 % of control and 88 % of control

C=CCSC(=S)N(C)C
inactive: dose: 25.0 mg/kg/injection, schedule: Q04DX002 (ip), vehicle: saline 101 % of control | [13] 89 % of control

CNN1CCOC1=O
inactive: [14] 100 % of control | [15] 100 % of control | dose: 400.0 mg/kg/injection, schedule: Q04DX002 (ip), vehicle: saline 104 % of control

O=C1c2ccccc2C(=O)N1CC(O)CCl (centres undefined)
inactive: [8] 93 % of control | dose: 50.0 mg/kg/injection, schedule: Q04DX003 (ip), vehicle: saline with Tween-80 91 % of control | [9] 93 % of control | [10] 102 % of control | [11] 90 % of control | [12] 96 % of control

CN(C)CCOc1ccc(Cl)cc1Cc1ccccc1
inactive: dose: 3.12 mg/kg/injection, schedule: Q01DX009 (ip), vehicle: saline 95 % of control | dose: 6.25 mg/kg/injection, schedule: Q01DX009 (ip), vehicle: saline 95 % of control | dose: 12.5 mg/kg/injection, schedule: Q01DX009 (ip), vehicle: saline 118 % of control | [16] 105 % of control | dose: 25.0 mg/kg/injection, schedule: Q04DX003 (ip), vehicle: saline 100 % of control | [2] 112 % of control | dose: 50.0 mg/kg/injection, schedule: Q04DX003 (ip), vehicle: saline 94 % of control

CCCCCCC(C)OB(OC(C)CCCCCC)OC(C)CCCCCC (centres undefined)
inactive: [17] 103 % of control | [18] 95 % of control | [19] 93 % of control

CC(=O)CSc1ccccn1
inactive: [20] 102 % of control | [21] 94 % of control | dose: 400.0 mg/kg/injection, schedule: Q01DX001 (ip), vehicle: carboxymethylcellulose (CMC) 96 % of control

c1ccc2c(c1)NC1(CCCCC1)S2
inactive: [22] 99 % of control | [17] 104 % of control | [23] 99 % of control | [18] 91 % of control | [24] 91 % of control | [19] 93 % of control

CN1CCN(C(=S)Nc2ccc([N+](=O)[O-])cc2)CC1
inactive: [22] 98 % of control | [23] 105 % of control | [24] 96 % of control

CC(C)(C)OC(=O)NC(CCCCNC(=O)C(F)(F)F)C(=O)ON1C(=O)CCC1=O (centres undefined)
inactive: dose: 25.0 mg/kg/injection, schedule: Q01DX009 (ip), vehicle: saline with Tween-80 93 % of control | [8] 95 % of control | [9] 90 % of control

Cc1cc2nc3[nH]c(=O)c4c(n3c2cc1C)CCC4
inactive: [13] 87 % of control | [14] 108 % of control | [15] 112 % of control

CC(=O)Nc1nc(/C=C/C(=O)CCl)c(CCCCc2ccccc2)c(=O)[nH]1
inactive: dose: 50.0 mg/kg/injection, schedule: Q01DX001 (ip), vehicle: Klucel (hydroxypropylcellulose) (HPC) 93 % of control | dose: 100.0 mg/kg/injection, schedule: Q01DX001 (ip), vehicle: Klucel (hydroxypropylcellulose) (HPC) 102 % of control | dose: 200.0 mg/kg/injection, schedule: Q01DX001 (ip), vehicle: Klucel (hydroxypropylcellulose) (HPC) 96 % of control

CC(C)CNC(=O)Nc1ccccc1
inactive: [25] 97 % of control | [26] 95 % of control

CCN(CC)CCSC(=O)C(O)(c1ccccc1)C1CCCC1 (centres undefined)
inactive: [16] 103 % of control | [2] 97 % of control and 108 % of control | [25] 96 % of control | [3] 100 % of control and 88 % of control | [1] 102 % of control | [26] 92 % of control | dose: 200.0 mg/kg/injection, schedule: Q04DX003 (ip), vehicle: saline 100 % of control

COc1cc(CCO)cc(OC)c1
inactive: [20] 86 % of control | [21] 86 % of control

Nc1ccnnc1
inactive: [2] 106 % of control | [3] 101 % of control | [4] 104 % of control

CCOC12c3ccccc3N(S(C)(=O)=O)C(C)C1C2(Br)Br (centres undefined)
inactive: [22] 94 % of control | [17] 110 % of control | [23] 94 % of control | [18] 102 % of control | [24] 90 % of control | [19] 109 % of control

NS(=O)(=O)c1cc([N+](=O)[O-])ccc1Cl
inactive: [10] 108 % of control | [12] 111 % of control | dose: 400.0 mg/kg/injection, schedule: Q04DX003 (ip), vehicle: saline with Tween-80 95 % of control

N=C(N)SCCCCSC(=N)N
inactive: [16] 92 % of control | [2] 97 % of control | [3] 94 % of control and 106 % of control

O=[N+]([O-])c1ccc(OCCOc2ccc([N+](=O)[O-])cc2)cc1
inactive: dose: 100.0 mg/kg/injection, schedule: Q01DX001 (ip), vehicle: saline 103 % of control | dose: 200.0 mg/kg/injection, schedule: Q01DX001 (ip), vehicle: saline 107 % of control | dose: 400.0 mg/kg/injection, schedule: Q01DX001 (ip), vehicle: saline 97 % of control

COC1OC(COC(=O)c2ccc([N+](=O)[O-])cc2)C(OC(=O)c2ccc([N+](=O)[O-])cc2)C1OCc1ccccc1 (centres undefined)
inactive: [5] 86 % of control | [6] 86 % of control | [7] 86 % of control and 89 % of control

COc1ccc(NC(=O)N(c2ccccc2)C(C)C)c(OC)c1
inactive: [22] 97 % of control | [23] 94 % of control | [24] 102 % of control

Brc1ccc(N(Cc2ccccc2)Cc2ccccc2)cc1
inactive: [9] 100 % of control | [11] 86 % of control | dose: 400.0 mg/kg/injection, schedule: Q01DX009 (ip), vehicle: saline with Tween-80 89 % of control

O=N[O-].O=N[O-].O=N[O-].O=N[O-].[Co+2].[NH2-].[NH2-]
inactive: [10] 115 % of control | [12] 118 % of control
